The record followed here is US20090169521A1, “Vascularized cardiac tissue and methods of producing and using same” (Technion Research & Development Foundation Ltd., priority 2007, published 2009).

Entries after “also recorded” stand apart in the source; their conditions may differ.

Experiment [1] deals with spontaneously contracting engineered cardiac tissue. The experiment is described as follows: Beating frequency of engineered cardiac tissue after chronotropic agents. The experiment is classed as cell-based, human. The following applies: 1 μM, n=4; before application 1.6±0.3 Hz (isoproterenol), 1.7±0.2 Hz (carbamylcholine). Here is the method:
Since the ultrastructural characterization clearly indicated the presence of gap junctions between adjacent hESC-CM (FIG. 7D), the present inventors sought to determine whether these formed gap junctions mediate impulse conduction between the hESC-CM and therefore allow synchronous contraction. The gap junction uncoupler, 1-heptanol (1 mM), was applied to the spontaneously contracting engineered cardiac tissue. […] The beating frequency of the spontaneously contracting cardiac tissue was evaluated following application of different pharmacological agents. Appropriate positive and negative chronotropic responses were observed following application of the β-agonist, isoproterenol (1 μM) and the muscarinic agonist—carbamylcholine (1 μM). Thus, isoproterenol increased the beating frequency of the engineered cardiac issue from 1.6±0.3 Hz to 2.1±0.3 Hz (p<0.05, n=4), while carbamylcholine decreased the beating frequency from 1.7±0.2 Hz to 1.4±0.1 Hz (p=0.055, n=4).

Experiment [2] concerns spontaneously contracting engineered cardiac tissue (gap junctions between hESC-CM). The experiment is described as follows: Laser confocal Ca2+ imaging (Fluo-4) of impulse propagation. The experiment is classed as cell-based, human. The note with it: 1 mM, calcium imaging. As for the experimental part: Laser scanning confocal Ca-imaging: Scaffolds were loaded with fluo-4 Ca AM (Molecular Probes) indicator to visualize free Ca^+2 levels. To this purpose, 5 mM stock solution of fluo-4 AM in DMSO was, diluted in standard hESC medium, at dilution of 1:1000 giving a final concentration of 5 μM. The non-ionic detergent Pluronic F-127 (Molecular Probes) was used to assist dispersion of the nonpolar fluo-4 AM ester in the aqueous media. Scaffolds were incubated for 45 minutes at 37° C. Following incubation the scaffolds were washed (×3) with indicator-free control tyrode solution removing any dye non-specifically associated with the cell surface. Afterwards the scaffolds were further incubated for 15 minutes allowing complete de-esterification of intracellular AM esters (according to manufacture's instructions). […]
Since the ultrastructural characterization clearly indicated the presence of gap junctions between adjacent hESC-CM (FIG. 7D), the present inventors sought to determine whether these formed gap junctions mediate impulse conduction between the hESC-CM and therefore allow synchronous contraction. […] The beating frequency of the spontaneously contracting cardiac tissue was evaluated following application of different pharmacological agents. […]

For the compound `CC(C)NCC(O)c1ccc(O)c(O)c1` (stereo not drawn) [isoproterenol], the “beating frequency after application of the agent” value in experiment [1] came out at 2.1±0.3 Hz.

For the compound `C[N+](C)(C)CCOC(N)=O.[Cl-]` [carbamylcholine], in experiment [1], the “beating frequency after application of the agent” value is 1.4±0.1 Hz.

In the case of `CCCCCCCO` [1-heptanol], the impulse propagation entry in experiment [2] was “complete inhibition; also recorded: completely inhibited”.
